According to patent US20090298781A1, “COMPOUNDS FOR THE INHIBITION OF APOPTOSIS” (CONSEJO SUPERIOR DE, priority 2005, published 2009):

Experiments:
Type in all cases: cell-based
Caspase activity, U2-OS = test: Caspase inhibition assay, U2-OS; conditions: Homo sapiens, U2OS
[1] = system: Caspase activity, U937 cell extracts; test: Caspase inhibition assay, U937 cell extracts; conditions: Homo sapiens, U-937
Protocol: (§1) The time-dependent inhibition of caspase induced by the compounds described in this invention was analysed. […] Caspase activity was assayed using Saos-2 or U937 cell extracts and Ac-DEVD-afc (N-acetyl-Asp-Glu-Val-Asp-afc(7-amino-4-trifluoromethyl coumarin)) as substrate (20 μM). Caspase activity was continuously monitored by the liberation of fluorescent afc using a Cytofluor 4000 fluorimeter (excitation 400 nm; emission 508 nm) for 1 hour. The effect of the compounds on the caspase activity was expressed as the percentage of inhibition in the fluorescence signal of treated cells vs. the non-treated cells (control).

Caspase activity, HeLa = test: Caspase inhibition assay, HeLa; conditions: Homo sapiens
Saos-2 cell line = test: MTT assay, toxicity (cell viability), Saos-2
Protocol: (§2) The MTT assay measures cell proliferation as well as reduction in cell viability when metabolic events lead to apoptosis or necrosis. It can also be used to assess the rate of survival of a given cell line when it is incubated in the presence of xenobiotics. The reduction of tetrazolium salts is accepted as a reliable way to analyse cell proliferation. The yellow tetrazolium MTT (3-(4,5-dimethylthiazolyl-2)-2,5-diphenyltetrazolium bromide) is reduced by metabolically active cells and results in the intracellular formation of purple formazan that can be spectrophotometrically measured after solubilisation with DMSO.
(§3) The MTT assay was used in this invention to assess the toxicity of compounds at different concentrations. To analyse their potential impairment in cell viability, compounds were added to Saos-2 and U937 cell lines at different concentrations and incubated at different times. Results are expressed by percentage cell viability.

U937 cell line = test: MTT assay, toxicity (cell viability), U937
Protocol: as §2, §3

[2] = system: Caspase activity, Saos-2 cell extracts; test: Caspase inhibition assay, Saos-2 cell extracts; conditions: Homo sapiens, 1 μM
Protocol: as §1

Row | SMILES | % Cell viability (Saos-2 cell line; Saos-2, 24 h, 1 μM) [%] | % Cell viability (Saos-2 cell line; Saos-2, 24 h, 5 μM) [%] | % Cell viability (Saos-2 cell line; Saos-2, 24 h, 10 μM) [%] | % Cell viability (Saos-2 cell line; Saos-2, 48 h, 1 μM) [%] | % Cell viability (Saos-2 cell line; Saos-2, 48 h, 5 μM) [%] | % Cell viability (Saos-2 cell line; Saos-2, 48 h, 10 μM) [%] | % Cell viability (U937 cell line; U937, 24 h, 1 μM) [%] | % Cell viability (U937 cell line; U937, 24 h, 5 μM) [%] | % Cell viability (U937 cell line; U937, 24 h, 10 μM) [%] | % Cell viability (U937 cell line; U937, 48 h, 1 μM) [%] | % Cell viability (U937 cell line; U937, 48 h, 5 μM) [%] | % Cell viability (U937 cell line; U937, 48 h, 10 μM) [%] | inhibition at 5 µM (Caspase activity, U2-OS; 24 h) [%] | inhibition at 5 µM (Caspase activity, U2-OS; 48 h) [%] | inhibition at 5 µM (Caspase activity, U2-OS; 72 h) [%] | inhibition at 5 µM ([1]; U937, 24 h) [%] | inhibition at 5 µM ([1]; U937, 48 h) [%] | inhibition at 5 µM ([1]; U937, 72 h) [%] | inhibition at 5 µM (Caspase activity, HeLa; 24 h) [%] | inhibition at 5 µM (Caspase activity, HeLa; 48 h) [%] | further results
1 | NC(=O)CN(CC1CCCO1)C(=O)C1CC(=O)N(CCc2ccc(Cl)cc2Cl)CC(=O)N1CCC(c1ccccc1)c1ccccc1 (stereo not shown) [I.4, 1-[2-(2,4-Dichlorophenyl)ethyl]-4-(3,3-diphenylpropyl)-3,7-dioxo[1,4]diazepane-5-carboxylic acid carbamoylmethyl(tetrahydrofuran-2-ylmethyl)amide] | 100 | 97 | 100 | 100 | 98 | 99 | 100 | 99 | 87 | 99 | 94 | 95 | – | – | – | – | – | – | – | – | inhibition at 1 µM (Caspase activity, U2-OS; 24 h): 0%; inhibition at 1 µM (Caspase activity, U2-OS; 48 h): 23%; inhibition at 1 µM (Caspase activity, U2-OS; 72 h): 54%; inhibition at 1 µM ([1]; U937, 24 h): 0%; inhibition at 1 µM ([1]; U937, 48 h): 12%; inhibition at 1 µM ([1]; U937, 72 h): 0%; inhibition at 1 µM (Caspase activity, HeLa; 24 h): 48%; inhibition at 1 µM (Caspase activity, HeLa; 48 h): 14%; inhibition at 1 µM (Caspase activity, HeLa; 72 h): 35%; inhibition at 1 µM ([2]; Saos-2, 24 h): 55%; inhibition at 1 µM ([2]; Saos-2, 48 h): 9%
2 | NC(=O)CN(C(=O)C1CC(=O)N(CCc2ccc(Cl)cc2Cl)CC(=O)N1CCC(c1ccccc1)c1ccccc1)C1CC1 (stereo not shown) [I.2, 1-[2-(2,4-Dichlorophenyl)ethyl]-4-(3,3-diphenylpropyl)-3,7-dioxo[1,4]diazepane-5-carboxylic acid carbamoylmethylcyclopropylamide] | 100 | 99 | 99 | 100 | 100 | 91 | 100 | 100 | 97 | 100 | 99 | 83 | 0 | 54 | 27 | 0 | 3 | 0 | 1 | 46 | inhibition at 5 µM (Caspase activity, HeLa; 72 h): 59%
3 | CCCCN(CC(N)=O)C(=O)C1CC(=O)N(CCc2ccc(Cl)cc2Cl)CC(=O)N1CCC(c1ccccc1)c1ccccc1 (stereo not shown) [I.11, 1-[2-(2,4-Dichloro-phenyl)ethyl]-4-(3,3-diphenylpropyl)-3,7-dioxo[1,4]diazepane-5-carboxylic acid butyl-carbamoylmethylamide] | 100 | 98 | 82 | 100 | 91 | 74 | 100 | 95 | 79 | 98 | 89 | 75 | 0 | 31 | 50 | 11 | 0 | 4 | 14 | 0 | inhibition at 5 µM (Caspase activity, HeLa; 72 h): 62%
4 | NC(=O)CN(CCc1ccccc1F)C(=O)C1CC(=O)N(CCc2ccc(Cl)cc2Cl)CC(=O)N1CCC(c1ccccc1)c1ccccc1 (stereo not shown) [I.9, 1-[2-(2,4-Dichlorophenyl)ethyl]-4-(3,3-diphenylpropyl)-3,7-dioxo[1,4]diazepane-5-carboxylic acid carbamoylmethyl[2-(2-fluorophenyl)-ethyl]amide] | 100 | 96 | 82 | 97 | 76 | 66 | 100 | 98 | 88 | 93 | 69 | 59 | 0 | 34 | 61 | 3 | 4 | 63 | 0 | 0 | inhibition at 5 µM (Caspase activity, HeLa; 72 h): 41%
5 | NC(=O)CN(CCc1ccc(Cl)cc1)C(=O)C1CC(=O)N(CCc2ccc(Cl)cc2Cl)CC(=O)N1CCC(c1ccccc1)c1ccccc1 (stereo not shown) [I.8, 1-[2-(2,4-Dichlorophenyl)ethyl]-4-(3,3-diphenylpropyl)-3,7-dioxo[1,4]diazepane-5-carboxylic acid carbamoylmethyl[2-(4-chlorophenyl)ethyl]amide] | 100 | 100 | 99 | 97 | 100 | 100 | 100 | 98 | 99 | 100 | 98 | 99 | 0 | 16 | 24 | 5 | 15 | 23 | 5 | 3 | inhibition at 5 µM (Caspase activity, HeLa; 72 h): 6%
6 | NC(=O)CN(CCc1ccc(F)cc1)C(=O)C1CC(=O)N(CCc2ccc(Cl)cc2Cl)CC(=O)N1CCC(c1ccccc1)c1ccccc1 (stereo not shown) [I.10, 1-[2-(2,4-Dichlorophenyl)ethyl]-4-(3,3-diphenylpropyl)-3,7-dioxo[1,4]diazepane-5-carboxylic acid carbamoylmethyl[2-(4-fluorophenyl)ethyl]amide] | 76 | 100 | 91 | 100 | 100 | 100 | 96 | 99 | 89 | 100 | 98 | 99 | 0 | 22 | 64 | 0 | 5 | 2 | 1 | 6 | –
7 | CC(=O)NCCNC(=O)CNC(=O)C1CC(=O)N(CCc2ccc(Cl)cc2Cl)CC(=O)N1CCC(c1ccccc1)c1ccccc1 (stereo not shown) [I.3, 1-[2-(2,4-Dichlorophenyl)ethyl]-4-(3,3-diphenylpropyl)-3,7-dioxo[1,4]diazepane-5-carboxylic acid (2-acetylaminoethyl)carbamoylmethylamide] | 97 | 93 | 100 | 100 | 100 | 100 | 100 | 95 | 95 | 100 | 100 | 98 | 1 | 29 | 22 | 12 | 16 | 1 | 9 | 21 | inhibition at 5 µM (Caspase activity, HeLa; 72 h): 29%
8 | NCCCCC(NC(=O)CN(CCc1ccc(Cl)cc1Cl)C(=O)C1CC(=O)N(CCc2ccc(Cl)cc2Cl)CC(=O)N1CCC(c1ccccc1)c1ccccc1)C(N)=O (stereo not shown) [IIa.2, 1-[2-(2,4-Dichlorophenyl)ethyl]-4-(3,3-diphenyl-propyl)-3,7-dioxo[1,4]diazepane-5-carboxylic acid [(5-amino-1-carbamoylpentylcarbamoyl)methyl]-[2-(2,4-dichlorophenyl)ethyl]amide] | 98 | 100 | 77 | 100 | 97 | 98 | – | – | – | – | – | – | – | – | – | 23 | 11 | 5 | – | – | % Cell viability (Saos-2 cell line; Saos-2, 24 h, 25 μM): 25%; % Cell viability (Saos-2 cell line; Saos-2, 24 h, 50 μM): 10%; % Cell viability (Saos-2 cell line; Saos-2, 48 h, 25 μM): 11%
